One may read the inhibition as the relative decrease from the control value, in per cent. High values mean a response far below the control, low ones a response near the control.

Molecules are shown by their SMILES.

In this assay the target is Human immunodeficiency virus type 1 protease (Human immunodeficiency virus 1) (UniProt Q72874). The assay can be described thus: In vitro inhibitory activity against HIV-1 protease at a concentration of 10 uM.
Take `O=C(Nc1ccccc1)N(Cc1ccccc1)CC(O)CN(Cc1ccccc1)C(=O)Nc1ccccc1`: the inhibition was found to be 16%. Then `CC(C)(C)OC(=O)NC(=O)N(Cc1ccccc1)CC(O)CN(Cc1ccccc1)C(=O)NC(=O)OC(C)(C)C`, with 28%; and `O=C(NCc1ccccc1)N(Cc1ccccc1)CC(O)CN(Cc1ccccc1)C(=O)NCc1ccccc1`, with 19%. Take `CC(C)[C@H](NC(=O)OCc1ccccc1)C(=O)N[C@@H](Cc1ccccc1)C(O)[C@H](Cc1ccccc1)NC(=O)[C@@H](NC(=O)OCc1ccccc1)C(C)C`: the inhibition was determined as 3%. Then `CC(C)CN(CC(O)CN(CC(C)C)C(=O)NC(C)(C)C)C(=O)NC(C)(C)C`, with 25%. Then `CC(C)(C)NC(=O)N(Cc1cccc(O)c1O)CC(O)CN(Cc1cccc(O)c1O)C(=O)NC(C)(C)C`, with 67%; and `CC(C)(C)NC(=O)NCC(O)CNC(=O)NC(C)(C)C`, with 8%; and `CON[C@@H](C(=O)NC(=O)N(Cc1ccccc1)CC(O)CN(Cc1ccccc1)C(=O)NC(=O)[C@H](NOC)C(C)C)C(C)C` (single isomer, unassigned), with 16%. Then `CCCNC(=O)N(Cc1ccccc1)CC(O)CN(Cc1ccccc1)C(=O)NCCC`, with 38%. On to `CC(C)(C)N(Cc1ccccc1)C(=O)NCC(O)CNC(=O)N(Cc1ccccc1)C(C)(C)C`, for which the inhibition came out at 17.5%. As for `CC(C)(C)NC(=O)N(Cc1cccc(O)c1)CC(O)CN(Cc1cccc(O)c1)C(=O)NC(C)(C)C`, the inhibition is 67%. Then `CON[C@H](C(=O)NC(=O)N(Cc1ccccc1)CC(O)CN(Cc1ccccc1)C(=O)NC(=O)[C@@H](NOC)C(C)C)C(C)C`, with 36%; and `CC(C)(C)NC(=O)N(Cc1ccccc1O)CC(O)CN(Cc1ccccc1O)C(=O)NC(C)(C)C`, with 11%; and `CC(C)(C)NC(=O)N(Cc1ccccc1)C[C@H](O)[C@@H](O)CN(Cc1ccccc1)C(=O)NC(C)(C)C`, with 78%.

On to `CC(C)(C)NC(=O)N(Cc1ccccc1)CC(O)CN(Cc1ccccc1)C(=O)NC(C)(C)C`, for which the inhibition turned out to be 50%.
